One compound from patent US8735140B2, “Preservation and composition of bioprocess algae for production of lipids, seedstock, and feed” (Kuehnle AgroSystems, Inc., priority 2008, dated 2014) can be followed below.

Common to all, as to assay: Trehalose preservation, storage as liquid in sponge matrix
Type in all cases: cell-based

The test system of one data set is Chlorella (KAS503). Here is the method: (§1) Flask cultures (40 ml) of cells are grown to mid-log phase with a density between 3×10^6 and 3×10^7 cells/ml, and are centrifuged. Culture medium is removed after centrifugation, resulting in more concentrated algae cells. Cells are then re-suspended in fresh medium and left overnight. Cells are centrifuged again the next day in order to remove the medium, and are then re-suspended in fresh or salt water without any nutrient. The cell density of the suspension is determined prior to storage under the various treatments. Cells in 40 ml flask cultures are grown to mid-log phase with a density of between 3×10^6 and 3×10^7 cells/ml, and are centrifuged. Culture medium is removed after centrifugation, resulting in more concentrated algae cells. Cells are then re-suspended in ideal glass solution consisting of fresh culture medium and trehalose at a concentration of 0.1M, 0.3M, and 0.5M (dihydrate trehalose 100 from Hayashibara Co. Ltd, Okayama, Japan), respectively, and left overnight with mild agitation. Cells are centrifuged again to remove the ideal glass solution the next day, and are re-suspended in fresh or salt water without any nutrient. The cell density of the resulting suspension is determined prior to storage under the various treatments. (Some cells were also treated with a 0.5M sorbitol solution). In one specific embodiment, non-toxic sponges made of polyurethane matrix ([…]-plugs® from Jaece Industries, Fisher Scientific 14-127-40B), 20 mm in diameter, are cut in half length-wise to fit the wells in the BD Falcon 12-well tissue culture plates and autoclave sterilized. One sponge is placed in each well of the tissue culture plate. 2.0 ml algae cell suspension is pipetted into each well, and the sponge is squeezed with sterile forceps to produce a faster uptake of the cell suspension into the sponge. Plates are subsequently closed and placed under low light and at ambient temperature. After stored under the above preservation conditions for 5 months, algae cells can be rejuvenated by squeezing the sponges with sterile forceps to allow a complete uptake of all cells in the suspension, including those cells not in the sponge such as cells remaining in the well. Cells in the sponges are then removed from the 12-well plates and placed in 10 ml of fresh medium under light. Cell viability is determined by comparing the cell growth in control set with the experimental set. Specifically, cell counts are performed on all samples. The averaged density value (in cells per ml) for all the cultures after treatment is defined as “rejuvenation cell count.” In some samples, the percent recovery of cells immediately after storage is also determined. The formulae are illustrated as follows: Growth=(rejuvenation cell count)/(initial cell count) Cell recovery after storage=(cell density after storage)/(initial cell density), with controls set at 100% cell recovery. Viability after storage and rejuvenation in nutrient medium=(Growth of treatment)/(Growth of control)×100%, with controls set at 100% viability

The next data set relates to Chlorella (KAS603). Here is the method: as §1
A further data set deals with Tetraselmis KAS633. Here is the method:
as §1

Where [1] appears, read: 0.5M trehalose in F/2, 20 weeks storage in water (no nutrients).
Setting [2] is: 0.5M trehalose in F/2, 20 weeks storage, final/initial density.
The mark [3] stands for this setting: 0.5M trehalose in F/2, 20 weeks storage, 0M control = 100%.

Turning to `OC[C@H]1O[C@H](O[C@H]2O[C@H](CO)[C@@H](O)[C@H](O)[C@H]2O)[C@H](O)[C@@H](O)[C@@H]1O` [trehalose, α-D-glycosyl-α-D-glycosylpyranoside], the “Final density after storage and 3 weeks rejuvenation” value with Chlorella (KAS503) (setting [1]) was 6.565 × 10^7 cells/ml; with Chlorella (KAS603) (setting [1]) it was 2.246 × 10^7 cells/ml; in the data set with Tetraselmis KAS633 (setting [1]) it was 2.031 × 10^6 cells/ml. Moreover, the Growth amounted to 2.88 in the data set with Chlorella (KAS503) (setting [2]), 0.81 in the data set on Chlorella (KAS603) (setting [2]) and 0.14 in the data set with Tetraselmis KAS633 (setting [2]). For the same compound, the “% Viability” value in the data set on Chlorella (KAS603) (setting [3]) is on record as “(193%)”; in the data set on Tetraselmis KAS633 (setting [3]) it was “(93%)”.
